From US8865911B2, “Compounds and their use as BACE inhibitors” (Astrazeneca AB, priority 2010, dated 2014)

Target: human β-Secretase (Homo sapiens (Human), UniProt P56817)
Test: TR-FRET assay
Assay type: biochemical
Conditions: sBACE-Fc, substrate (Europium)CEVNLDAEFK(Qsy7) 100 nM, pH4.5, 15 minutes at r.t.
Method: The β-secretase enzyme used in the TR-FRET is prepared as follows: The cDNA for the soluble part of the human β-Secretase (AA 1-AA 460) was cloned using the ASP2-Fc10-1-IRES-GFP-neoK mammalian expression vector. The gene was fused to the Fc domain of IgG1 (affinity tag) and stably cloned into HEK 293 cells.
The robotic systems Biomek FX and Velocity 11 were used for all liquid handling and the enzyme and substrate solutions were kept on ice until they were placed in the robotic system. Enzyme (9 μl) was added to the plate then 1 μl of compound in dimethylsulphoxide was added, mixed and pre-incubated for 10 minutes. Substrate (10 μl) was then added, mixed and the reaction proceeded for 15 minutes at r.t. The reaction was stopped with the addition of Stop solution (7 μl, NaAcetate, pH 9). […] The dimethylsulphoxide control, instead of test compound, defined the 100% activity level and 0% activity was defined by wells lacking enzyme (replaced with reaction buffer).

human β-Secretase, sequence (P56817 22-460): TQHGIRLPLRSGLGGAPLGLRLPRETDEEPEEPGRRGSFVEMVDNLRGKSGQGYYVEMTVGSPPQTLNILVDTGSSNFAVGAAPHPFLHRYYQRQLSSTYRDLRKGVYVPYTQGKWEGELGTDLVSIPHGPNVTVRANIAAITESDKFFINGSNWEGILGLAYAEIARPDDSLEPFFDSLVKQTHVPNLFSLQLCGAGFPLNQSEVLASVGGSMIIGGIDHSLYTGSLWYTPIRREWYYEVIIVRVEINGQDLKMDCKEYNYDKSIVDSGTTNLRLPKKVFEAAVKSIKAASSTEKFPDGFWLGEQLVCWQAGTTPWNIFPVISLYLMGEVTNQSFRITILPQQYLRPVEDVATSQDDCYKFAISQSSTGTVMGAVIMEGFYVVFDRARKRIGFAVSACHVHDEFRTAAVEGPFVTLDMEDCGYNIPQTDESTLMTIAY

IC50	IC50 in TR-FRET assay	SMILES
19.8 nM		CO[C@H]1CC[C@]2(CC1)Cc1ccc(-c3cccc(F)c3F)cc1[C@@]21N=C(C)C(N)=N1 [Example 101]
22 nM		CC#Cc1cncc(-c2ccc3c(c2)C2(N=C(C)C(N)=N2)[C@]2(CC[C@H](OCC)CC2)C3)c1 (stereo partly drawn) [Example 135, (1r,4r)-4-Ethoxy-5″-methyl-6′-[5-(prop-1-yn-1-yl)pyridin-3-yl]-3′H-dispiro[cyclohexane-1,2′-indene-1′,2″-imidazol]-4″-amine]
1980 nM		CC1=NC2(CCOc3ccc(-c4cc(C)ccc4F)cc32)N=C1N (stereo not drawn) [Example 11, 6-(2-Fluoro-5-methylphenyl)-5′-methylspiro[chroman-4,2′-imidazol]-4′-amine]
3640 nM		COc1ccc(OC)c(-c2ccc3c(c2)C2(CCO3)N=C(C)C(N)=N2)c1 (stereo not drawn) [Example 5, 6-(2,5-Dimethoxyphenyl)-5′-methylspiro[chroman-4,2′-imidazol]-4′-amine]
51 nM		CC#Cc1cncc(-c2ccc3c(c2)C2(N=C(C)C(N)=N2)[C@]2(CC[C@](C)(OC)CC2)C3)c1 (stereo partly drawn) [Example 111, (1r,4r)-4-Methoxy-4,5″-dimethyl-6′-[5-(prop-1-yn-1-yl)pyridin-3-yl]-3′H-dispiro[cyclohexane-1,2′-indene-1′,2″-imidazol]-4″-amine]
89 nM		CC#Cc1cncc(-c2ccc3c(c2)C2(N=C(C)C(N)=N2)[C@]2(CC[C@H](OC)CC2)C3)c1C (stereo partly drawn) [Example 63, (1r,4r)-4-Methoxy-5″-methyl-6′-[4-methyl-5-(prop-1-yn-1-yl)pyridin-3-yl]-3′H-dispiro[cyclohexane-1,2′-indene-1′,2″-imidazol]-4″-amine]
6460 nM		CC1=NC2(CCOc3ccc(NC(=O)c4ccc(C)s4)cc32)N=C1N (stereo not drawn) [Example 13f, N-(4′-Amino-5′-methylspiro[chroman-4,2′-imidazole]-6-yl)-5-methylthiophene-2-carboxamide]
100 nM		CC1=NC2(N=C1N)c1cc(-c3cccc(Cl)c3)ccc1CC21CCOCC1 (stereo not drawn) [Example 26a, 6′-(3-Chlorophenyl)-5-methyl-2″,3″,5″,6″-tetrahydro-3′H-dispiro[imidazole-2,1′-indene-2′,4″-pyran]-4-amine]
23 nM		COCc1cc(F)cc(-c2ccc3c(c2)C2(N=C(C)C(N)=N2)[C@]2(CC[C@H](OC)CC2)C3)c1 (stereo partly drawn) [Example 81, (1r,4r)-6′-[3-Fluoro-5-(methoxymethyl)phenyl]-4-methoxy-5″-methyl-3′H-dispiro[cyclohexane-1,2′-indene-1′,2″-imidazol]-4″-amine]
	inactive	CC1=NC2(CC(C3CCCOC3)Oc3ccc(Br)cc32)N=C1N (single isomer, unassigned) [Example 47 Isomer 1, 6-Bromo-5′-methyl-2-(tetrahydro-2H-pyran-3-yl)spiro[chromane-4,2′-imidazole]-4′-amine]
112 nM		CC#CCOc1ccc(C(=O)Nc2ccc3c(c2)C2(CCO3)N=C(C)C(N)=N2)nc1 (stereo not drawn) [Example 13d, N-(4′-amino-5′-methylspiro[chroman-4,2′-imidazole]-6-yl)-5-(but-2-ynyloxy)picolinamide]
157 nM		CC1=NC2(CCOc3ccc(-c4cc(Cl)cc(Cl)c4)cc32)N=C1N (stereo not drawn) [Example 1, 6-(3,5-Dichlorophenyl)-5′-methylspiro[chroman-4,2′-imidazol]-4′-amine]
	inactive	CC1=NC2(CC(C3CCOC(C)(C)C3)Oc3ccc(Br)cc32)N=C1N (mixture of isomers) [Example 49 Isomeric mixture 2, 6-Bromo-2-(2,2-dimethyltetrahydro-2H-pyran-4-yl)-5′-methyl-spiro[chromane-4,2′-imidazole]-4′-amine]
2610 nM		CC1=NC2(N=C1N)c1cc(Br)ccc1CC21CCC(C(F)F)CC1 (stereo not drawn) [Example 128, 6′-Bromo-4-(difluoromethyl)-5″-methyl-3′H-dispiro[cyclohexane-1,2′-indene-1′,2″-imidazol]-4″-amine]

The remaining lines, values behind:

SMILES	IC50	IC50 in TR-FRET assay
CCO[C@H]1CC[C@]2(CC1)Cc1ccc(-c3cncc(Cl)c3)cc1C21N=C(C)C(N)=N1 (stereo partly drawn) [Example 133, (1r,4r)-6′-(5-chloropyridin-3-yl)-4-ethoxy-5″-methyl-3′H-dispiro[cyclohexane-1,2′-indene-1′,2″-imidazol]-4″-amine]	25 nM	
CC1=NC2(CC(C3CCCOC3)Oc3ccc(Br)cc32)N=C1N (single isomer, unassigned) [Example 47 Isomer 2, 6-Bromo-5′-methyl-2-(tetrahydro-2H-pyran-3-yl)spiro[chromane-4,2′-imidazole]-4′-amine]	1030 nM	
CC1=NC2(CC(C3CCOC(C)(C)C3)Oc3ccc(Br)cc32)N=C1N (mixture of isomers) [Example 49 Isomeric mixture 1, 6-Bromo-2-(2,2-dimethyltetrahydro-2H-pyran-4-yl)-5′-methyl-spiro[chromane-4,2′-imidazole]-4′-amine]	10 nM	
CCO[C@H]1CC[C@]2(CC1)Cc1ccc(-c3cc(C#N)cc(C(F)F)c3)cc1C21N=C(C)C(N)=N1 (stereo partly drawn) [Example 134, 3-[(1r,4r)-4″-Amino-4-ethoxy-5″-methyl-3′H-dispiro[cyclohexane-1,2′-indene-1′,2″-imidazol]-6′-yl]-5-(difluoromethyl)benzonitrile]	28 nM	
CC1=NC2(CC(C3CCCOC3)Oc3ccc(Br)cc32)N=C1N (single isomer, unassigned) [Example 47 Isomer 5, 6-Bromo-5′-methyl-2-(tetrahydro-2H-pyran-3-yl)spiro[chromane-4,2′-imidazole]-4′-amine]	19800 nM	
CCC1=NC2(N=C1N)c1cc(Br)ccc1C[C@]21CC[C@@H](OC)CC1 (stereo partly drawn) [Example 64, (1r,4r)-6′-Bromo-5″-ethyl-4-methoxy-3′H-dispiro[cyclohexane-1,2′-indene-1′,2″-imidazol]-4″-amine]	401 nM	
CC1=NC2(CC(C3CCCOC3)Oc3ccc(Br)cc32)N=C1N (single isomer, unassigned) [Example 47 Isomer 7, 6-Bromo-5′-methyl-2-(tetrahydro-2H-pyran-3-yl)spiro[chromane-4,2′-imidazole]-4′-amine]		inactive
CC1=N[C@]2(N=C1N)c1cc(-c3cc(F)cc(C#N)c3)ccc1C[C@]21CC[C@@H](OC(F)F)CC1 (racemic) [Example 105, 3-[(1r,4r)-4″-Amino-4-(difluoromethoxy)-5″-methyl-3′H-dispiro[cyclohexane-1,2′-indene-1′,2″-imidazol]-6′-yl]-5-fluorobenzonitrile]	22 nM	
CC1=NC2(N=C1N)c1cc(-c3ccc(F)c(Cl)c3)ccc1CC21CCOCC1 (stereo not drawn) [Example 26c, 6′-(3-Chloro-4-fluorophenyl)-5-methyl-2″,3″,5″,6″-tetrahydro-3′H-dispiro[imidazole-2,1′-indene-2′,4″-pyran]-4-amine]	145 nM	
CC1=NC2(N=C1N)c1cc(C#CC(C)(C)C)ccc1CC21CCC1 (stereo not drawn) [Example 59, 6′-(3,3-Dimethylbut-1-yn-1-yl)-5″-methyl-3′H-dispiro[cyclobutane-1,2′-indene-1′,2″-imidazol]-4″-amine]	2610 nM	
CC1=NC2(CCOc3ccc(NC(=O)c4ncc(Cl)cc4Cl)cc32)N=C1N (stereo not drawn) [Example 13i, N-(4′-Amino-5′-methylspiro[chroman-4,2′-imidazole]-6-yl)-3,5-dichloropicolinamide]	560 nM	
CC1=NC2(N=C1N)c1cc(NC(=O)c3ccc(Cl)cn3)ccc1CC21CCC(F)(F)CC1 (stereo not drawn) [Example 28d, N-(4″-Amino-4,4-difluoro-5″-methyl-3′H-dispiro[cyclohexane-1,2′-indene-1′,2″-imidazol]-6′-yl)-5-chloropyridine-2-carboxamide]	408 nM	
COc1ccc(C)cc1-c1ccc2c(c1)C1(CCO2)N=C(C)C(N)=N1 (stereo not drawn) [Example 10, 6-(2-Methoxy-5-methylphenyl)-5′-methylspiro[chroman-4,2′-imidazol]-4′-amine]	6850 nM	
CC1=NC2(CC(C3CCCOC3)Oc3ccc(Br)cc32)N=C1N (single isomer, unassigned) [Example 47 Isomer 6, 6-Bromo-5′-methyl-2-(tetrahydro-2H-pyran-3-yl)spiro[chromane-4,2′-imidazole]-4′-amine]	1380 nM	
CC1=NC2(CC(C3CCCOC3)Oc3ccc(Br)cc32)N=C1N (single isomer, unassigned) [Example 47 Isomer 4, 6-Bromo-5′-methyl-2-(tetrahydro-2H-pyran-3-yl)spiro[chromane-4,2′-imidazole]-4′-amine]	65300 nM	
CC1=NC2(CCOc3ccc(NC(=O)c4ccc(Cl)cn4)cc32)N=C1N (stereo not drawn) [Example 13a, N-(4′-Amino-5′-methylspiro[chroman-4,2′-imidazole]-6-yl)-5-chloropicolinamide]	1300 nM	
CC1=NC2(CC(C3CCOC(C)(C)C3)Oc3ccc(-c4cccc(Cl)c4)cc32)N=C1N (racemic) [Example 50 Isomeric mixture 1, 6-(3-Chlorophenyl)-2-(2,2-dimethyltetrahydro-2H-pyran-4-yl)-5′-methylspiro[chroman-4,2′-imidazol]-4′-amine]	100 nM	
CC1=NC2(CC(C3CCCOC3)Oc3ccc(Br)cc32)N=C1N (single isomer, unassigned) [Example 47 Isomer 3, 6-Bromo-5′-methyl-2-(tetrahydro-2H-pyran-3-yl)spiro[chromane-4,2′-imidazole]-4′-amine]		inactive
CC1=NC2(N=C1N)c1cc(-c3cc(F)cc(F)c3)ccc1C[C@]21CC[C@@H](OC(F)F)CC1 (stereo partly drawn) [Example 109, (1r,4r)-4-(Difluoromethoxy)-6′-(3,5-difluorophenyl)-5″-methyl-3′H-dispiro[cyclohexane-1,2′-indene-1′,2″-imidazol]-4″-amine]	21 nM	
